According to patent publication US4425352A, “Substituted phenoxyacetates of cyclic amines” (Agence Nationale de Valorisation de la Recherche, priority 1980, dated 1984):
Several values for one entry are separate records, joined by “and”; a condition that tells them apart may be missing. Identical values can stand only once.

Key:
mice = experiment: Acute toxicity (LD 50) per os and intraveinous, Litchfield and Wilcoxon method; assay type: in vivo; conditions: for LD 50 I.V.: intraveinous; for LD 50 P.O.: per os
Experimental: The toxicities were calculated according to the LITCHFIELD and WILCOXON method (J. Pharm. and Exp. Therap. 1949, 96, p. 99, 113).
The products were administered per os and per intraveinous route to mice.

fish chromatophores = experiment: Action on the fish chromatophores (time of blackening); assay type: in vivo, Phoxinus Phoxinus Linne; conditions: at minimum effectual concentration
Experimental: The physiology of fish chromatophores is dependent on hypothalamic secretions of the lower portion of the diencephalon. The psychotropic and cerebral-orientation drugs can modify the physiology of these regions [J. Thuillier et al. C.R. Soc. […] This test is known to evidence the action of the products on the diencephalon which controls distension and blackening of fish chromatophores. […] The time for the fish blackening to occur was measured. The same test was effected with Meclofexonate.

cerebral oedema of rats = experiment: Actions on cerebral oedema caused by triethyltin chloride; assay type: in vivo; conditions: 50 mg per kilogram
Experimental: The alkylated tin compounds are toxic and cause selective oedema of the central nervous system and in particular of the brain (Works of R. KATZMAN et al. Arch. Neurol. 9, 178, 1963). The water content of the cerebral tissue is increased. Similarly, the cerebral sodium content increases, while the potassium is reduced.
100 mg per kg of Meclofenoxate are required to provide the same result.

[1] = system: mice intoxicated with aurothioglucose; experiment: Protective effect against the action of aurothioglucose (hyperphagia, stomach weight, weight gain); assay type: in vivo; parameters: Decrease in the stomach weight with respect to the aurothioglucose reference: unit not given here; conditions: for Action against hyperphagia and weight gain of mice intoxicated with aurothioglucose: given 1/2 hour before aurothioglucose 250 mg/kg; for Weight increase: 15 days after beginning, aurothioglucose alone 49%
Experimental: Hunger and thirst regulation is dependent on stimulating secretions from the hypothalamus. These regulator centers may be disturbed either in acquired manner in genetically obese animals, either consequently to the destruction of the involved centers by selective poisons, such as aurothioglucose.
If 250 mg/kg of aurothioglucose are injected to mice, then the cells of the hypothalamic nuclei will degenerate and cause an hyperphagia syndrome in animals which is evidenced by:
a distension of the stomach,
a considerable increase in ponderal growing.
The mice were treated with one of the products of the invention 1/2 hour before the intraperitoneal injection of aurothioglucose (250 mg/kg).

rats = experiment: Orientation test after an electroshock; assay type: in vivo
From the text: This test consists in causing a loss of orientation and motive disorders in rats after repetition of 4 series of electroshock [M. Herold: Acta. Int. Meet. Psycho. Drug.

[2] = system: mice rendered obese by aurothioglucose; experiment: Curative action after development of obesity under the action of aurothioglucose; assay type: in vivo; conditions: for Decrease in weight/Aurothioglucose references: 18 days, per os; for Activity compared with Meclofenoxate at 200 mg/kg: in words
Experimental: Mice were rendered obese by intra-peritoneal injections of aurothioglucose (800 mg/kg).
After the development of obesity, a plateau was obtained in the weight curve. There was then selected an homogenous group of mice and treatment with PM 170 and Meclofenoxate was initiated. The results obtained were compared with a group of reference mice treated only with aurothioglucose (ATG controls).

genetically obese mice [3] = experiment: Action on genetically obese mice; assay type: in vivo; conditions: for Decrease in weight: obese mice, gastric ingestion, 18 days
Experimental: Finally, gastric ingestion during 18 days of 200 mg/kg of PM 170 causes, in obese mice, a steady decrease in weight of 8.3%, while in the same conditions there occurs, with Meclofenoxate, a decrease in weight of 2.2%.

blood platelet clotting = experiment: Effect against blood platelet clotting (pia-mater vessels); assay type: in vivo, rabbits; conditions: dose not stated
Experimental: All the products of the invention prepared according to Examples 1 and 2 at a dose of 10 mg/kg have an effect against plaquette aggregation which was observed on the pia-mater vessels of rabbits [M. M. G. BOZEIX 7th. Int. Congress of Pharmacology, Paris, July 1978].

Diuretic action = assay type: in vivo
genetically obese mice [4] = experiment: Action on genetically obese mice; assay type: in vivo; parameters: Alimentary consumption: unit not given here; conditions: for Weight: in g
central nervous system = experiment: Actions on the central nervous system (overall statement); assay type: in vivo; conditions: versus Meclofenoxate

## CN1CCCCC1COC(=O)COc1ccc(Cl)cc1 (centres unmarked) [PM 172, N-methyl-2-hydroxymethyl-piperidine 4-chloro-phenoxyacetate]
mice
  LD 50 I.V.: 160 mg
  LD 50 P.O.: 1500 mg
Fish chromatophores
  Time of occurrence of the blackening: 60 s
Cerebral oedema of rats
  Effect on the build up of Na+: limit the build up of Na^+
  Effect on the loss of K+: counteract the loss of K^+
  Occurrence of the oedema caused by triethyltin chloride: considerably reduce the occurrence of the oedema
[1]; 60 mg/kg P.O
  Decrease in the stomach weight with respect to the aurothioglucose reference: 2.6299
[1]; 100 mg/kg P.O
  Decrease in the stomach weight with respect to the aurothioglucose reference: 2.2727
[1]
  Action against hyperphagia and weight gain of mice intoxicated with aurothioglucose: counteract both hyperphagia and the weight gain

## CN(C)CCOC(=O)COc1ccc(Cl)cc1 [Meclofenoxate, dimethylaminoethyl 4-chlorophenoxyacetate, reference compound]
mice
  LD 50 I.V.: 350 mg
  LD 50 P.O.: 1750 mg
Fish chromatophores
  Time of occurrence of the blackening: 90 s
rats; up to 200 mg/kg
  Efficacy in orientation test after electroshock: absolutely inefficient
[1]; 250 mg/kg P.O
  Decrease in the stomach weight with respect to the aurothioglucose reference: 2.2495
[1]; 300 mg/kg P.O
  Decrease in the stomach weight with respect to the aurothioglucose reference: 1.6129
[1]
  Weight increase: 45%
[1]; Mus musculus, stomach weight, Table IV, read-out: Dosage at which (only) active
  minimal effective dose: 250 mg/kg
[1]; stomach weight, versus PM 170
  Times less active than PM 170: 12.4 times
[1]; versus PM 170, in words
  Activity to counteract obesity caused by aurothioglucose: less active than PM 170
[2]; 50 mg/kg
  Decrease in aliment consumption/ATG references: inactive
[2]; 50 mg/kg per day
  Decrease in weight/Aurothioglucose references: inactive
[2]; 100 mg/kg
  Decrease in aliment consumption/ATG references: 26%
[2]; 100 mg/kg per day
  Decrease in weight/Aurothioglucose references: 10%
[2]; 200 mg/kg
  Decrease in aliment consumption/ATG references: 23% and 22.9%
[2]; 200 mg/kg per day
  Decrease in weight/Aurothioglucose references: 5%
Genetically obese mice [3]; 200 mg/kg
  Decrease in weight: 2.2%
Blood platelet clotting
  Effect against blood platelet clotting: no effect against blood platelet clotting
Diuretic action; dose not stated
  Diuretic action: no effect against blood platelet clotting nor diuretic action
Genetically obese mice [4]; treated normal females, 300 mg/kg, normal female controls 6.703 ± 0.597
  Alimentary consumption: 5.842 ± 0.842
Genetically obese mice [4]; treated normal females, 300 mg/kg, normal female controls 25.3 ± 0.504
  Weight: 24.8 ± 0.602
Genetically obese mice [4]; treated obese females, 300 mg/kg, obese female controls 6.347 ± 0.637
  Alimentary consumption: 5.542 ± 0.302
Genetically obese mice [4]; treated obese females, 300 mg/kg, obese female controls 42.5 ± 0.787
  Weight: 41.2 ± 0.802

## CCN1CCCC(OC(=O)COc2ccc(Cl)cc2)C1 (centres unmarked) [PM 168, N-ethyl-3-piperidine 4-chloro-phenoxyacetate]
mice
  LD 50 I.V.: 140 mg
  LD 50 P.O.: 1800 mg
Fish chromatophores
  Time of occurrence of the blackening: 30 s
Cerebral oedema of rats
  Effect on the build up of Na+: limit the build up of Na^+
  Effect on the loss of K+: counteract the loss of K^+
  Occurrence of the oedema caused by triethyltin chloride: considerably reduce the occurrence of the oedema
[1]; 100 mg/kg P.O
  Decrease in the stomach weight with respect to the aurothioglucose reference: 2.5510
[1]; 150 mg/kg P.O
  Decrease in the stomach weight with respect to the aurothioglucose reference: 3.37
[1]
  Action against hyperphagia and weight gain of mice intoxicated with aurothioglucose: counteract both hyperphagia and the weight gain

## CN1CCCC(COC(=O)COc2ccc(Cl)cc2)C1 (centres unmarked) [PM 170, N-methyl-3-hydroxymethyl-piperidine (4-chloro-phenoxyacetate)]
mice; in words
  Toxicity compared with Meclofenoxate / overall toxicity: less toxic than "Meclofenoxate"
mice
  LD 50 I.V.: 175 mg
  LD 50 P.O.: 2300 mg
Fish chromatophores
  Time of occurrence of the blackening: 90 s
Cerebral oedema of rats
  Effect on the build up of Na+: limit the build up of Na^+
  Effect on the loss of K+: counteract the loss of K^+
  Occurrence of the oedema caused by triethyltin chloride: considerably reduce the occurrence of the oedema
rats; 100 mg, first 2 series of electroshock
  Efficacy in orientation test after electroshock: slightly effective
[1]; 20 mg/kg P.O
  Decrease in the stomach weight with respect to the aurothioglucose reference: 3.2155
[1]; 50 mg/kg P.O
  Decrease in the stomach weight with respect to the aurothioglucose reference: 2.8729
[1]; 100 mg/kg P.O
  Decrease in the stomach weight with respect to the aurothioglucose reference: 4.2287
[1]
  Weight increase: 34%
  Action against hyperphagia and weight gain of mice intoxicated with aurothioglucose: counteract both hyperphagia and the weight gain
[1]; in words
  Activity against increase of the stomach weight distension: very high activity
[2]; 50 mg/kg
  Decrease in aliment consumption/ATG references: 10%
  Activity compared with Meclofenoxate at 200 mg/kg: same activity at 50 mg/kg than Meclofenoxate at 200 mg/kg
[2]; 50 mg/kg per day
  Decrease in weight/Aurothioglucose references: 5%
[2]; 100 mg/kg
  Decrease in aliment consumption/ATG references: 33%
[2]; 100 mg/kg per day
  Decrease in weight/Aurothioglucose references: 12%
[2]; 200 mg/kg
  Decrease in aliment consumption/ATG references: 36%
  Activity compared with Meclofenoxate at 200 mg/kg: markedly higher than Meclofenoxate at 200 mg/kg
[2]; 200 mg/kg per day
  Decrease in weight/Aurothioglucose references: 14%
Genetically obese mice [3]; genetically obese mice of 42-42.5 g, in words
  Activity on alimentary consumption and weight development: active both on alimentary consumption and on weight development
Genetically obese mice [3]; 200 mg/kg
  Decrease in weight: 8.3%
Genetically obese mice [3]; treated obese males, 200 mg/kg, obese male controls 43.3 ± 0.284, in g
  Weight: 39.3 ± 0.882
Diuretic action; 100 mg/kg
  Diuretic action: slight diuretic action
Central nervous system
  Activity on the central nervous system relative to Meclofenoxate: from five to twelve times more active than Meclofenoxate
Genetically obese mice [4]; treated normal males, 200 mg/kg, normal male controls 6.307 ± 0.746
  Alimentary consumption: 4.716 ± 0.880
Genetically obese mice [4]; treated normal males, 200 mg/kg, normal male controls 25.34 ± 0.365
  Weight: 22.22 ± 0.484
Genetically obese mice [4]; treated obese males, 200 mg/kg, obese male controls 6.786 ± 0.853
  Alimentary consumption: 4.384 ± 0.886
